Patent US11161876B2, “Anti-inflammatory nanofibers” (Northwestern University, priority 2015, dated 2021)
“Also recorded” adds a separate entry of the source. * marks the point of attachment. C16 alkyl = CCCCCCCCCCCCCCCC*

Legend:
[1] = tested on: Rat Bladder Augmentation Model; assay: Blood vessel quantification in areas of bladder tissue regeneration; assay type: in vivo; settings: means±SE
Protocol: (§1) Athymic female rats (weighing ˜200 g and 8-10 weeks old; National Cancer Institute Animal Production Program) underwent bladder augmentation (ref. 15; herein incorporated by reference in its entirety). Athymic rats were chosen for this study to solely examine the innate immune response to inflammation without influence of the adaptive immune response. In order to induce anesthesia, animals were given intraperitoneal injections of 60 mg/kg ketamine and 5 mg/kg xylazine. A second injection consisting of Buprenex (1 mg/kg) was administered subcutaneously to alleviate any pain/discomfort during and following surgical procedures. An approximate 1.5 cm midline vertical skin incision was created to expose the abdominal fascia and muscles. This was immediately followed by the separation of the wall leading to the identification of the bladder. An approximate 70% supratrigonal cystectomy was performed from anterior to posterior creating a clamshell. Immediately prior to bladder augmentation procedures, samples of the pro-inflammatory biological scaffold, small intestinal submucosa (SIS (0.5×0.5 cm); Cook Biotech.) (refs. 12,13,16; herein incorporated by reference in their entireties) were thoroughly dip-coated separately in one of the previously described AIF-PAs following gelation procedures. The sections of SIS were dip-coated for approximately 20 seconds and allowed to adhere to the SIS for an additional 30 seconds. Dip-coating procedures were performed at room temperature in air. The cystectomized bladder defect was then augmented with: 1) SIS (non-AIF-PA coated SIS; n=8 animals over both time-points); 2) AIF-PA1 coated SIS (denoted as SIS/AIF-PA1; n=11 animals over both time-points); 3) AIF-PA2 coated SIS (denoted as SIS/AIF-PA2; n=8 animals over both time-points); 4) AIF-PA3 coated SIS (denoted as SIS/AIF-PA3; n=3); 5) AIF-PA4 coated SIS (denoted as SIS/AIF-PA4; n=3 animals); 6) AIF-PA5 coated SIS (denoted as SIS/AIF-PA5; n=3 animals); and 7) AIFC-PA6 coated SIS (denoted as SIS/AIFC-PA6; n=9 animals over both time-points). The bladder was finally covered with omentum after being closed in a watertight manner utilizing 7-0 polyglactin suture. The abdominal wall was then closed in a single layer with 5-0 ethibond running suture and the skin re-approximated with 9 mm autoclips. Each group was sacrificed at 10 day and 5 week time-points.
Trichrome sample images were opened with Adobe Photoshop CS3 and were initially characterized utilizing a Nikon Eclipse 50i Microscope in addition to Spot Advanced Imaging Software. Vessel numbers were quantified utilizing the pen tool based upon n=10 images per graft in regenerated areas. Individual vessels were selected manually and subsequently quantified using the image histogram tool to acquire pixel density for each vessel. Data is represented as mean number of vessels/mm^2 (means±SE).

[2] = tested on: CD68+ macrophages; assay: Immunofluorescence quantification of CD68+ macrophages in regenerated bladder tissue; assay type: in vivo, rat
Protocol: as §1
Tissue sections comprised of SIS alone, SIS/AIF-PA1, SIS/AIF-PA2, and SIS/AIF-PA6 augmentations were subjected to immunofluorescence staining by initially undergoing antigen retrieval which consisted of 15 min of boiling in citrate buffer (0.01M citrate solution, pH 6.0 with 0.05% Tween-20) followed by cooling at room temperature for approximately 20 minutes. The antibody staining process consisted of a blocking step for 15 min in bovine serum albumin (BSA, 5 mg/ml) followed by a 40 minutes incubation at room temperature with the primary antibody. After washing with DPBS, slides were incubated for 30 min with a secondary antibody and eventually rinsed with DPBS and air dried. Slides were mounted with Vectashield (Vector Laboratories). Primary antibodies were directed against epitopes for the inflammatory markers CD68 (macrophage) (refs. 18,19; herein incorporated by reference in their entireties) MPO (neutrophil) (ref. 20; herein incorporated by reference in its entirety) or the inflammation-related proteins IL1β, TNFα, IL-10, IL-13, CD206 (M2 macrophage) (refs. 21-25; herein incorporated by reference in their entireties) and CD86 (M1 macrophage) (ref. 26; herein incorporated by reference in its entirety). Antibodies directed against the ECM in regenerating bladder tissue (including COL4A3 and fibronectin) were also utilized. Alexa Red 555 or FITC conjugated secondary antibodies (Molecular Probes) were utilized for visualization (ref. 15; herein incorporated by reference in its entirety). […]

[3] = tested on: Rat Bladder Augmentation Model; assay: Bladder tissue collagen quantification (Masson's Trichrome); assay type: in vivo; settings: for mean level of collagen in regenerated bladder tissue: means±SE; for collagen levels, in words: 10 days post-augmentation, compared between groups
Protocol: as §1
Explanted bladder specimens encompassing the entire thickness of the bladder were isolated immediately following euthanasia and processed (ref. 15; herein incorporated by reference in its entirety). Specimens were fixed in a 10% buffered formalin phosphate (Fisher Scientific, Inc.) solution followed by a series of graded ethanol exchanges then embedded in paraffin (Fisher Scientific). Embedded tissues were sectioned onto glass slides at a thickness of 10 μm using a RM2125 RT Microtome (Leica) onto glass slides and subjected to staining with Masson's Trichrome (Sigma-Aldrich Corp.) reagent. The paraffin was removed from tissue containing slides using a hot plate at 62° C. for 6 minutes and was followed by treatment with xylenes, graded ethanol washes and DI water. Slides were placed in Bouin's solution (Sigma-Aldrich Corp.) for approximately 15 min then rinsed under running tap water. The samples were then stained 5 minutes with Hematoxylin and rinsed with running water and subsequently stained with Scarlet-Acid Fuchsin (Sigma-Aldrich Corp.). Slides were rinsed again with DI water and placed into a mixture of PTA/PMA, followed by Aniline Blue solution and a 1% acetic acid wash. Finally, slides were placed in 95-100% ethanol and rinsed in xylene. Following air drying, a coverslip was placed over the specimen sample and secured with Permaslip (Alban Scientific Inc).
Bladder tissue specimens were evaluated for collagen content (refs. 13,15,17; herein incorporated by reference in their entireties). […]

[4] = tested on: Rat Bladder Augmentation Model; assay: Urodynamic testing (UDS) of augmented bladders; assay type: in vivo; settings: for intravesical pressure during voiding: post-augmentation
Protocol: as §1
The bladders of anesthetized athymic rats were exposed through the abdomen as previously described. A 20 gauge cannula (Becton Dickinson and Co.) was delicately placed into the bladder through the dome in order to obtain intravesical measurements. The cannula was connected to the Pump 11 Elite Syringe Pump (Harvard Apparatus) and to a physiological pressure transducer (SP844, MEMSCAP). The pressure transducer was connected to a bridge amplifier (Model FE221; AD Instruments). Continuous reading of the transvesical pressure was measured and plotted using LabChart 7.3 software (AD Instruments). The fill rate for each study ranged from 150-200 uL per minute. Bladder capacity was measured by a modified protocol (ref. 13; herein incorporated by reference in its entirety). Sterile DPBS was injected into the bladder using a 27 gauge needle in 50 μl increments until fluid leakage was observed from the urethra of the animal. The total volume injected was then noted. This procedure was repeated at least three times per animal. Urine was evacuated from the bladder prior to the start of any bladder capacity measurements utilizing a sterile 27 gauge needle. Urodynamic and bladder capacity measurements were performed immediately prior to augmentation procedures and immediately prior to euthanization.
Bladders underwent urodynamic testing (UDS) pre- and post-augmentation. Bladders were gradually filled with sterile saline until a bladder contraction occurred. Bladder pressures rose during the filling until bladder contractions occurred at intravesical pressures of 30-40 cm H2O (FIG. 5, panels A, C, E, and G). […]

[5] = post-augmentation vs pre-augmentation

Substance	number of vessels in regenerated tissue ([1]; 5W post-augmentation) [vessels/mm^2]	number of vessels in regenerated tissue ([1]; 10D post-augmentation) [vessels/mm^2]	percentage of cells CD68+ ([2]; 5 weeks post-augmentation) [%]	percentage of cells CD68+ ([2]; 10 days post-augmentation) [%]	mean level of collagen in regenerated bladder tissue ([3]; 5W post-augmentation) [%]	mean level of collagen in regenerated bladder tissue ([3]; 10D post-augmentation) [%]	collagen levels, in words [3]	intravesical pressure during voiding [4]	intravesical / voiding pressures, in words [4, 5]	bladder compliance, in words [4, 5]
C16-VVVAAAEEEHDMNKVLDL (SEQ ID NO:2) ({C16 alkyl}-VVVAAAEEEHDMNKVLDL-NH2) [SIS/AIF-PA2, anti-inflammatory peptide amphiphile, tested dip-coated on small intestinal submucosa (SIS) scaffold]	96.7±4.4	71.5±6.7	16.5±1.6	23.1±3.3	58.0±0.6	58.6±0.4	lesser degrees of collagen	approximately 35 cm H2O	very modest decrease in bladder intravesical pressure	
C16-VVVAAAEEEKLMSQKMVD (SEQ ID NO:6) ({C16 alkyl}-VVVAAAEEEKLMSQKMVD-NH2) [SIS/AIFC-PA6, reference compound]	53.3±4.4	37.0±2.3	42.0±2.6		68.8±2.7	71.5±1.4			unchanged or even slightly elevated; also recorded: failed to decrease intravesical pressures	
C16-VVVAAAEEEMQMKKVLDS (SEQ ID NO:1) ({C16 alkyl}-VVVAAAEEEMQMKKVLDS-NH2) [SIS/AIF-PA1, anti-inflammatory peptide amphiphile, tested dip-coated on small intestinal submucosa (SIS) scaffold]	90.7±4.5	71.0±1.5	17.6±1.8	33.4±2.0	55.0±1.2	59.1±1.1	lesser degrees of collagen	approximately 25 cm H2O	decreased intravesical pressures	higher bladder compliance; also recorded: increase in compliance
